Test results from the supplement of paper PMC11208160.

Assay: recombinant barcode read abundance after kanamycin selection (control-corrected) (log10(CPM+1)); higher = more efficient recombination; sequences stand for … in AGTGCAGAGAAAATCGGCCAGTTTTCTCTGCCTGCAGTCCGCATGCCGT…AGATTTATGCAGCGGACTGCCTTTCTCCCAAAGTGATAAACCGGACAGTATCATGGACCGGTTTTCCCGGTAATCCGTATTTGCAAGGTTGGTTTCACT; site = the 11-nt target
Procedure, shortened: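 Values are log10(CPM+1) from a pooled E. coli screen of targets paired with IS621 bridge RNA target-binding loops. Recombination efficiency here means counts per million of recombinant-junction barcodes, averaged and control-corrected. Plates were chloramphenicol/ampicillin LB agar for the control and chloramphenicol/ampicillin/kanamycin with 0.1 mM IPTG, two replicates each.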
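Also: IS621 recombinase and bridge RNA in Escherichia coli cells.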

| Sequence | recombinant barcode read abundance (log10) |
| --- | --- |
| CTAGACTCTTGGGTTCTAACCTGTTGCAG (site CTAGACTCTGT) | 1.16 |
| CTAGACTCTTGGGTTCTAACCTGTTGCAG (site CTAGACTCTTT) | 0.376 |
| CTAGCGACTTGGGTTCTAACCTGTTGCAC (site AGGAGAGCTAA) | 0.409 |
| CTAGCGACTTGGGTTCTAACCTGTTGCAC (site CTAGCGACTGT) | 1.15 |
| CTAGCGACTTGGGTTCTAACCTGTTGCCG (site ACGCTATCTAA) | 0.102 |
| CTAGCGACTTGGGTTCTAACCTGTTGCCG (site CTAGCGACTCG) | 0.834 |
| CTAGCTCCTTGGGTTCTAACCTGTTGCTT (site CTAGCTCCTAA) | 0.0882 |
| CTAGCTCCTTGGGTTCTAACCTGTTGCTT (site GCTTGGTCTTC) | 0.0776 |
| CTAGGAGCTTGGGTTCTAACCTGTTGCCT (site CTAGGACCTTG) | 0.0183 |
| CTAGGAGCTTGGGTTCTAACCTGTTGCCT (site CTAGGAGCTAG) | 0.148 |
| CTAGGAGCTTGGGTTCTAACCTGTTGCTA (site CTAGGAGCTAA) | 0.137 |
| CTAGGAGCTTGGGTTCTAACCTGTTGCTA (site CTAGGAGCTCA) | 0.231 |
| CTAGGAGCTTGGGTTCTAACCTGTTGCTA (site CTAGGAGCTGA) | 0.0444 |
| CTAGGAGCTTGGGTTCTAACCTGTTGCTA (site CTAGGAGCTTA) | 1.23 |
| CTAGGAGCTTGGGTTCTAACCTGTTGCTG (site CTAGGAGCTAA) | 0.19 |
| CTAGGAGCTTGGGTTCTAACCTGTTGCTG (site CTAGGAGCTCA) | 1.75 |
| CTAGGAGCTTGGGTTCTAACCTGTTGCTG (site CTAGGAGCTGA) | 0.169 |
| CTAGGAGCTTGGGTTCTAACCTGTTGCTG (site CTAGGAGCTTA) | 0.073 |
| CTAGGATCTTGGGTTCTAACCTGTTGCCA (site CTAGGATCTAT) | 0.844 |
| CTAGGATCTTGGGTTCTAACCTGTTGCCA (site CTAGGATCTTG) | 0.24 |
| CTAGGCCCTTGGGTTCTAACCTGTTGCGT (site CTAGGCCCTAA) | 0.361 |
| CTAGGCCCTTGGGTTCTAACCTGTTGCGT (site CTAGGCCCTAC) | 3.3 |

| Sequence | recombinant barcode read abundance (log10) |
| --- | --- |
| CTAGGCCCTTGGGTTCTAACCTGTTGCGT (site CTAGGCCCTAG) | 0.264 |
| CTAGGCCCTTGGGTTCTAACCTGTTGCGT (site CTAGGCCCTAT) | 2.28 |
| CTAGTAGCTTGGGTTCTAACCTGTTGCCG (site CTAGTAGCTCG) | 1.84 |
| CTAGTAGCTTGGGTTCTAACCTGTTGCCG (site CTATTAGCTCG) | 0.277 |
| CTAGTAGCTTGGGTTCTAACCTGTTGCGT (site CTAGTAGCTAC) | 2.25 |
| CTAGTAGCTTGGGTTCTAACCTGTTGCGT (site CTAGTAGCTCC) | 0.378 |
| CTAGTCTCTTGGGTTCTAACCTGTTGCGT (site CTAGGATCTAC) | 0.0308 |
| CTAGTCTCTTGGGTTCTAACCTGTTGCGT (site CTAGTCTCTAC) | 3.07 |
| CTAGTGACTTGGGTTCTAACCTGTTGCGC (site CTAGTGACTAC) | 0.0258 |
| CTAGTGACTTGGGTTCTAACCTGTTGCGC (site CTAGTGACTCC) | 0.0835 |
| CTAGTGACTTGGGTTCTAACCTGTTGCGC (site CTAGTGACTGC) | 2.12 |
| CTAGTGACTTGGGTTCTAACCTGTTGCGC (site CTAGTGACTTC) | 0.127 |
| CTAGTGACTTGGGTTCTAACCTGTTGCGT (site CTAGTGACTAC) | 1.17 |
| CTAGTGACTTGGGTTCTAACCTGTTGCGT (site CTAGTGACTCC) | 0.313 |
| CTAGTGACTTGGGTTCTAACCTGTTGCGT (site CTAGTGACTGC) | 0.0977 |
| CTAGTGACTTGGGTTCTAACCTGTTGCGT (site CTAGTGACTTC) | 0.00958 |
| CTATACTCTTGGGTTCTAACCTGTTGCCA (site CTATACTCTTG) | 1.03 |
| CTATACTCTTGGGTTCTAACCTGTTGCCA (site CTATTCTCTTA) | 0.195 |
| CTATATGCTTGGGTTCTAACCTGTTGCTT (site CTATATGCTAA) | 0.613 |
| CTATATGCTTGGGTTCTAACCTGTTGCTT (site TAGACCACTGT) | 0.449 |
| CTATCGCCTTGGGTTCTAACCTGTTGCCT (site CTATCGCCTAG) | 0.496 |
| CTATCGCCTTGGGTTCTAACCTGTTGCCT (site CTCTCGCCTAG) | 0.238 |

| Sequence | recombinant barcode read abundance (log10) |
| --- | --- |
| CTATCGCCTTGGGTTCTAACCTGTTGCCT (site CTGTCGCCTAG) | 0.0772 |
| CTATCGCCTTGGGTTCTAACCTGTTGCCT (site CTTTCGCCTAG) | 0.0941 |
| CTATTATCTTGGGTTCTAACCTGTTGCCT (site CTATTATCTAG) | 0.935 |
| CTATTATCTTGGGTTCTAACCTGTTGCCT (site CTGTTATCTAG) | 0.0433 |
| CTATTCTCTTGGGTTCTAACCTGTTGCCT (site CTATTCACTAG) | 0.472 |
| CTATTCTCTTGGGTTCTAACCTGTTGCCT (site CTATTCCCTAG) | 0.188 |
| CTATTCTCTTGGGTTCTAACCTGTTGCCT (site CTATTCGCTAG) | 0.011 |
| CTATTCTCTTGGGTTCTAACCTGTTGCCT (site CTATTCTCTAG) | 2.03 |
| CTATTTGCTTGGGTTCTAACCTGTTGCAA (site CTAATTGCTTT) | 0.0524 |
| CTATTTGCTTGGGTTCTAACCTGTTGCAA (site CTACTTGCTTT) | 0.103 |
| CTATTTGCTTGGGTTCTAACCTGTTGCAA (site CTAGTTGCTTT) | 0.0402 |
| CTATTTGCTTGGGTTCTAACCTGTTGCAA (site CTATTTGCTTT) | 0.0441 |
| CTCATTCCTTGGGTTCTAACCTGTTGCGT (site CTCATTCCTAA) | 0.00984 |
| CTCATTCCTTGGGTTCTAACCTGTTGCGT (site CTCATTCCTAC) | 1.4 |
| CTCATTCCTTGGGTTCTAACCTGTTGCGT (site CTCATTCCTAG) | 0.0869 |
| CTCATTCCTTGGGTTCTAACCTGTTGCGT (site CTCATTCCTAT) | 0.212 |
| CTCCATTCTTGGGTTCTAACCTGTTGCAT (site CTCAATTCTAT) | 0.217 |
| CTCCATTCTTGGGTTCTAACCTGTTGCAT (site CTCCATTCTAT) | 1.74 |
| CTCCATTCTTGGGTTCTAACCTGTTGCAT (site CTCGATTCTAT) | 0.123 |
| CTCCATTCTTGGGTTCTAACCTGTTGCAT (site CTCTATTCTAT) | 0.34 |
| CTCCCTACTTGGGTTCTAACCTGTTGCAG (site CTCCCAACTCG) | 0.072 |
| CTCCCTACTTGGGTTCTAACCTGTTGCAG (site CTCCCTACTCT) | 1.68 |

| Sequence | recombinant barcode read abundance (log10) |
| --- | --- |
| CTCCGGCCTTGGGTTCTAACCTGTTGCTT (site CTCCGACCTAA) | 0.809 |
| CTCCGGCCTTGGGTTCTAACCTGTTGCTT (site CTCCGCCCTAA) | 0.0895 |
| CTCCGGCCTTGGGTTCTAACCTGTTGCTT (site CTCCGGCCTAA) | 0.521 |
| CTCCGGCCTTGGGTTCTAACCTGTTGCTT (site CTCCGTCCTAA) | 0.0711 |
| CTCCGTACTTGGGTTCTAACCTGTTGCCG (site CTCCGTACTCG) | 0.13 |
| CTCCGTACTTGGGTTCTAACCTGTTGCCG (site CTTCGTACTTG) | 0.0671 |
| CTCCTACCTTGGGTTCTAACCTGTTGCCT (site CGCCTAGCTAG) | 0.11 |
| CTCCTACCTTGGGTTCTAACCTGTTGCCT (site CTCCTACCTAG) | 0.957 |
| CTCCTCTCTTGGGTTCTAACCTGTTGCCT (site CTCCTCCCTAG) | 0.862 |
| CTCCTCTCTTGGGTTCTAACCTGTTGCCT (site CTCCTCTCTAG) | 2.05 |
| CTCCTGCCTTGGGTTCTAACCTGTTGCCT (site CTCCTGCCTAG) | 0.977 |
| CTCCTGCCTTGGGTTCTAACCTGTTGCCT (site TTCCTGACTAG) | 0.0902 |
| CTCGACACTTGGGTTCTAACCTGTTGCCT (site CTAGACACTAG) | 0.697 |
| CTCGACACTTGGGTTCTAACCTGTTGCCT (site CTCGACACTAG) | 1.82 |
| CTCGACACTTGGGTTCTAACCTGTTGCCT (site CTGGACACTAG) | 0.0603 |
| CTCGACACTTGGGTTCTAACCTGTTGCCT (site CTTGACACTAG) | 0.215 |
| CTCGCAGCTTGGGTTCTAACCTGTTGCGG (site CTCGCAGCTCC) | 0.313 |
| CTCGCAGCTTGGGTTCTAACCTGTTGCGG (site CTCGCGACTCC) | 0.141 |
| CTCGCGACTTGGGTTCTAACCTGTTGCGG (site CTCGCAGCTCC) | 0.655 |
| CTCGCGACTTGGGTTCTAACCTGTTGCGG (site CTCGCGACTCC) | 0.181 |
